These results are taken from patent US5246830A, “Enzymatic process for the determination of β-lactam antibiotics” (Ucb Bioproducts, S.A., priority 1990, dated 1993).

Assay [1] has as its target T1, enzyme R39 (Actinomadura sp. R39, UniProt P39045). The assay can be described thus: Hydrolysis of thioester-type substrate by enzyme R39 and its activation by D-amino acids. It counts as biochemical. The settings on record: for activating effect on the thioester hydrolysis reaction by enzyme R39: thioester-type substrate of formula I; for activity of enzyme R39 on the substrate: one unit hydrolyzes 1 micromole of substrate per minute at 47° C. The source says:
In other words, in the presence of this activator, the rate of hydrolysis of the substrate by enzyme R39 is 40 times higher.

Assay [2] deals with T2, enzyme R39 (soluble D-alanyl-D-alanine carboxypeptidase produced by Actinomadura R39) (Actinomadura sp. R39, UniProt P39045).
T2 construct: added to milk or serum samples
The assay can be described thus: Enzymatic determination of penicillin G in milk with [(N-phenylacetyl-D-alanyl)thio]-acetic acid as substrate (Example 4). The class given is biochemical. The note with it: Example 4, Table IV. How it is done:
The process is the same as in example 3, except that, after the first incubation, 120 μl of an aqueous solution containing 5 mg/ml of [(N-phenylacetyl-D-alanyl)thio]-acetic acid are added.

Assay [3] concerns the target T1, enzyme R39. The note with it: about 20 μl milk, 3 picomoles enzyme R39, cited from earlier work.
The subject of assay [4] is cells or cell parts of Bacillus stearothermiphilus. The note with it: enzyme-tagged antibiotic, visual colorimetric method; cited from earlier work.
The target in assay [5] is T2, enzyme R39 (soluble D-alanyl-D-alanine carboxypeptidase produced by Actinomadura R39). The assay can be described thus: Enzymatic determination of cephapirin in milk (Example 6). The class given is biochemical. How it is done: The process is the same as in example 3, but the samples of 3 ml of milk contain known concentrations of cephapirin.

T2 sequence (P39045 50-515): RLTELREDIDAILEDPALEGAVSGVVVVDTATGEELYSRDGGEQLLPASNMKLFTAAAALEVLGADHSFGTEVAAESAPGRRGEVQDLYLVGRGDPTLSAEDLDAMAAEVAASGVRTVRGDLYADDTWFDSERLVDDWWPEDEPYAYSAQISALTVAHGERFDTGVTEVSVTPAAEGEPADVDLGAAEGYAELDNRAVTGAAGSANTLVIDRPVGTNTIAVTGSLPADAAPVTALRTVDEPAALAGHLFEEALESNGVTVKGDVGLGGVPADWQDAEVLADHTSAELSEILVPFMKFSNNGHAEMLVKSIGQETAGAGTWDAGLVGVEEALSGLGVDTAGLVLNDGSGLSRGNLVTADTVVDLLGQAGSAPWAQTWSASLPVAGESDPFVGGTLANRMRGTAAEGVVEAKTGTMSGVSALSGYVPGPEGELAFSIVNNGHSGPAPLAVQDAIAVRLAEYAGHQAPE
T1 sequence (P39045 50-515): as above

With `CSCC[C@@H](N)C(=O)O` [D-methionine], the “activating effect on the thioester hydrolysis reaction by enzyme R39” value (“activating effect … by enzyme R39” for short) at enzyme R39 [1] is “best activators”.
The same measure, in the same setting: to `N[C@H](Cc1c[nH]cn1)C(=O)O` [D-histidine] belongs “best activators”.
As for `C[C@@H](NC(=O)Cc1ccccc1)C(=O)SCC(=O)O` [[(N-phenylacetyl-D-alanyl)thio]-acetic acid], in assay [2], the “process carried out with this compound as substrate” value is on record as “successfully”.
`N[C@H](Cc1c[nH]c2ccccc12)C(=O)O` [D-tryptophan]: the “activating effect … by enzyme R39” value at enzyme R39 [1] is on record as “best activators”.
Consider `CC[C@@H](N)C(=O)O` [D-2-aminobutyric acid], for which the “activating effect … by enzyme R39” value at enzyme R39 [1] is recorded as “best activators”.
As for `N[C@H](CO)C(=O)O` [D-serine], the “activating effect … by enzyme R39” value at enzyme R39 [1] is reported as “best activators”.
`C[C@@H](N)C(=O)O` [D-alanine]: the “activating effect … by enzyme R39” value at enzyme R39 [1] is on record as “best activators”.
As for `CC(C)[C@@H](N)C(=O)O` [D-valine], the “activating effect … by enzyme R39” value on enzyme R39 [1] is reported as “best activators”.
On to `N[C@H](Cc1ccccc1)C(=O)O` [D-phenylalanine], for which the “activating effect … by enzyme R39” value at enzyme R39 [1] is recorded as “best activators”.
For the compound penicillin, the “penicillin concentration in milk quantitatively determined (spectrophotometer)” value at enzyme R39 [3] is recorded as 0.02 I.U./ml. In addition, the “penicillin concentration in milk qualitatively determined by the visual method” value at enzyme R39 [3] (in less than one hour) is on record as “more than 0.09 I.U./ml”. In assay [4], the “penicillin concentration threshold detected in milk” value is given as 0.05 IU/ml.
In the case of `N=C(N)NCCC[C@@H](N)C(=O)O` [D-arginine], the “activating effect … by enzyme R39” value on enzyme R39 [1] is given as “best activators”.
With `C[C@@H](NC(=O)c1ccccc1)C(=O)SCC(=O)O` [[(N-benzoyl-D-alanyl)thio]-acetic acid], on enzyme R39 [1] (among thioesters of formula I), the “performance as substrate for enzyme R39” value is recorded as “best results”. The entries for the “activity of enzyme R39 on the substrate” value at enzyme R39 [1] (in the absence of D-alanine) and on enzyme R39 [1] (in the presence of D-alanine) were 8 units per milligram of enzyme and 320 units per milligram of enzyme, respectively.
On to `CC(=O)OCC1=C(C(=O)O)N2C(=O)[C@@H](NC(=O)CSc3ccncc3)[C@H]2SC1` [cephapirin], for which the Coloration result is “medium yellow” in assay [5] (cephapirin 0.002 μg/ml in 3 ml milk), “pale yellow” in assay [5] (cephapirin 0.003 μg/ml in 3 ml milk), “white” in assay [5] (cephapirin 0.004 μg/ml in 3 ml milk) and “white” in assay [5] (cephapirin 0.006 μg/ml in 3 ml milk). Moreover, the “cephapirin concentration in milk detected visually” value in assay [5] (in 15 minutes time) came out at 0.004 µg/mL.
Turning to `NCC(=O)O` [glycine], on enzyme R39 [1], the “activating effect … by enzyme R39” value is “activating effect”.
